Reference: patent publication US20200179528A9, “IMMUNE CELL-TARGETED PARTICLES” (Dana-Farber Cancer Institute, Inc., priority 2015, published 2020)

What was measured:
[1] = Loading of other small molecules into the nanoparticles and their release; type: physicochemical; details: 10%, 20% or 40% small molecule
Method: The formulation procedure used is the same as that used in FIG. 1. Release was measured by absorbance maximum at 280 nm, 300 nm, and 340 nm, respectively. 22.5 mg of PLGA and 7.5 mg of PLGA-PEG were used along with 3 mg (10%), 6 mg (20%), or 12 mg (40%) of small molecule. Note that the release profile can be delayed by loading less drug. Note that the encapsulation efficiency can increase (epacadostat) or decrease (resiquimod, ruxolitinib) by increasing initial loading amount.

[2] = tested on: CD8+ T cells; test: CD8+ T cell activation with anti-CD3/CD28 beads in presence of TGFβ1 (proliferation, granzyme B, IFNγ); type: cell-based, mouse
Method: FIG. 34. […] Intracellular granzyme B expression was assessed by flow cytometry, n=3±SD. […] Fold change of interferon-γ (IFNγ) was measured by ELISA, n=4±SEM.
In vitro binding of nanoparticles was assessed after incubation of 250,000 enriched T cells with fluorescently (DiD, Life Technologies) labelled nanoparticles at different concentrations for 30 min at 37° C. After the incubation, T cells were washed 3 to 5 times in PBS and directly assessed by flow cytometry for DiD fluorescence. T cells isolated from OT-I Rag^−/− mice were activated by Dynabeads Mouse T-Activator CD3/CD28 (Thermo Scientific) at a ratio of 2:1 T cell to bead or by ova-expressing B16 melanoma cells at a ratio of 10:1 T cell to B16 cell. Carboxyfluorescein succinimidyl ester (CFSE, BioLegend) or cell trace violet (CTV, Thermo Scientific) was used to assess T cell proliferation; the labeling was carried out according to the manufacturer's recommendations. Mouse TGFβ1 was purchased from Cell Signaling Technologies, and T cell supernatants were analyzed by mouse IFN-γ ELISA MAX™ (BioLegend).

[3] = SD-208 solubility, loading and release from PEG-PLGA nanoparticles; type: physicochemical
Method: PLGA-based nanoparticles were prepared using single-emulsion evaporation. PLGA (AP041, acid end-capped, 50:50, 10-15 kDa, Akina) was blended with Mal-PEG-PLGA (AI53, diblock copolymer, 50:50, 5-10 kDa, Akina) at 25% w/w. The polymers were dissolved in 1 mL dichloromethane (Sigma) and added to 6 mL of ice-cold 0.25% PVA (30,000-70,000 g/mol, Sigma) in 50 mM phosphate buffer, pH 5.8. The two phases were emulsified using a sonic probe (Qsonica Q700 with microtip, amplitude 10, 3 s power with 2 s break). […] The emulsion was stirred at room temperature for 3 h to evaporate the dichloromethane and afterwards purified by two wash-spin cycles in PBS at 20,000 g for 10 min. Nanoparticles s were assessed for size distribution using a Zetasizer Nano series ZS90, and drug encapsulation was determined by absorbance at 370 nm.
Encapsulation efficiency and drug release kinetics were analyzed by its absorbance maximum at 370 nm (FIG. 43A).

[4] = SD-208 released from nanoparticles versus free inhibitor in DMSO

Row | change of encapsulation efficiency by increasing initial loading amount [1] | Structure (SMILES) | TGFβ-mediated inhibition of T cell proliferation ([2]; SD-208 released from nanoparticles versus free SD-208, TGFβ1 2 ng/mL, 72 hours) | granzyme B [2, 4] | interferon γ (IFNγ) [2, 4] | amount entrapped in PEG-PLGA nanoparticles [3] [μg/mg polymer] | water solubility [3] | release from the nanoparticles ([3]; PBS containing 10% serum)
1 | decrease | N#CC[C@H](C1CCCC1)n1cc(-c2ncnc3[nH]ccc23)cn1 [ruxolitinib] | – | – | – | – | – | –
2 | increase | NS(=O)(=O)NCCNc1nonc1/C(=N/O)Nc1ccc(F)c(Br)c1 [epacadostat] | – | – | – | – | – | –
3 | – | Fc1ccc(Cl)cc1-c1nc(Nc2ccncc2)c2nccnc2n1 [SD-208] | reversed in a comparable manner | upregulated to a similar extent as free inhibitor | upregulated to a similar extent as free inhibitor | 20 | poorly water soluble | released slowly from the nanoparticles over the course of weeks
